Converted amounts (≈) assume the structure as drawn.
What was measured:
Gram-positive bacteria = assay: Broth microdilution, summary over reference Gram-positive bacteria; assay type: cell-based; conditions: for share of reference Gram-positive strains with no activity: no activity: MIC > 1000 µg/mL
Description: Reference strains of microorganisms that came from American Type Culture Collection (ATCC) (Manassas, VA, USA) were used for this study. The representative Gram-positive bacteria were as follows: Staphylococcus aureus ATCC 25923, Staphylococcus aureus ATCC 29213, Staphylococcus aureus ATCC 43300, Staphylococcus epidermidis ATCC 12228, Enterococcus faecalis ATCC 29212, Micrococcus luteus ATCC 10240, Bacillus subtilis ATCC 6633 and Bacillus cereus ATCC 10876. While, those of Gram-negative bacteria were as follows: Bordetella bronchiseptica ATCC 4617, Escherichia coli ATCC 25922, Klebsiella pneumoniae ATCC 13883, Proteus mirabilis ATCC 12453, Salmonella Typhimurium ATCC 14028 and Pseudomonas aeruginosa ATCC 9027. Moreover, the following fungi belonging to yeasts were used: Candida albicans ATCC 10231, Candida albicans ATCC 2091, Candida parapsilosis ATCC 22019, Candida glabrata ATCC 90030 and Candida krusei ATCC 14243.
The new compounds WZ1–WZ4 were assayed for both antibacterial and antifungal activity using the broth microdilution method in accordance with the European Committee on Antimicrobial Susceptibility Testing (EUCAST) and Clinical and Laboratory Standards Institute (CLSI) guidelines. The microorganisms were grown at 35 °C for 18–24 h on appropriate media (nutrient agar and Sabouraud for bacteria and fungi, respectively) (BioMaxima S.A., Lublin, Poland). Next, microbial suspensions with an optical density of 0.5 McFarland standard scale (in sterile 0.85% NaCl) were prepared. In turn, the tested compounds were initially diluted at 50 mg/mL in dimethyl sulfoxide (DMSO) and the broth microdilution method was used to assess their minimum inhibitory concentrations (MICs). For these studies, selective broth Mueller-Hinton (MH) (BioMaxima S.A., Lublin, Poland) and RPMI (Roswell Park Memorial Institute) 1640 with MOPS (3-(N-Morpholino)propanesulfonic acid) (Sigma-Aldrich Chemicals, St. Louis, MO, USA) were used for bacteria and fungi, respectively. The antimicrobial effect of compounds WZ1–WZ4 was determined in the concentration range from 2000 to 0.98 µg/mL.
Then, the microbial suspensions were introduced into each well of the microplate and incubated for 18–24 h at 35 °C. […] The reference drugs ciprofloxacin or vancomycin (against bacteria) and nystatin (against fungi) (Sigma-Aldrich Chemicals, St. Louis, MO, USA) were also used. Next, the values of the minimum bactericidal concentration (MBC) and minimum fungicidal concentration (MFC) of WZ1–WZ4 were assessed. For this purpose, the cultures from each MIC determination well were transferred to a suitable solid medium and incubated under appropriate conditions. The lowest concentrations of compounds without microbial growth were read as MBC or MFC. The studies were performed in triplicate and representative data were gathered.
In turn, the MBC/MIC or MFC/MIC ratios were used to assess bactericidal/fungicidal (MBC/MIC or MFC/MIC ≤ 4) and bacteriostatic/fungistatic (MBC/MIC or MFC/MIC > 4) effect of these compounds [93].

[1] = system: Klebsiella pneumoniae ATCC 13883; assay: Broth microdilution antimicrobial activity; assay type: cell-based; conditions: for MBC / MIC: ATCC13883
In short: (§1)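 Broth microdilution per EUCAST and CLSI guidelines, with Mueller-Hinton broth for bacteria and RPMI 1640 with MOPS for yeast. Inocula were adjusted to 0.5 McFarland, compounds were tested from 2000 to 0.98 µg/mL, and plates were incubated 18–24 h at 35 °C. MBC/MFC came from subculturing MIC wells onto solid medium.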

[2] = system: Micrococcus luteus ATCC 10240; assay: Broth microdilution antimicrobial activity; assay type: cell-based; conditions: for MBC / MIC: ATCC10240
In short: as §1

[3] = system: Candida krusei ATCC 14243; assay: Broth microdilution antimicrobial activity; assay type: cell-based; conditions: for MFC / MIC: Pichia kudriavzevii; for MFC: ATCC14243, read-out: MFC; for MIC: ATCC14243, read-out: MIC
In short: as §1

[4] = system: Escherichia coli ATCC 25922; assay: Broth microdilution antimicrobial activity; assay type: cell-based; conditions: for MBC / MIC: ATCC25922
In short: as §1

[5] = system: Enterococcus faecalis ATCC 29212; assay: Broth microdilution antimicrobial activity; assay type: cell-based; conditions: for MBC / MIC: ATCC29212; for MBC / MIC / MBC/MIC: Enterococcus faecalis ATCC 29212; for MBC: read-out: MBC; for MIC: read-out: MIC
In short: as §1

PC3 (prostate cancer) = assay: MTT antiproliferative activity assay; assay type: cell-based, human; conditions: for TI after 24h / TI after 48h: IC50 WS1 / IC50 PC3
Method: (§2) Cancer cell lines originating from different organs, i.e., AGS (stomach—gastric adenocarcinoma), HepG2 (hepatocellular carcinoma), Du145, PC3 (prostate cancer), 769-P (renal cell carcinoma) and physiology cell line WS1 (fibroblasts), were purchased from ATCC. The cell cultures were carried out in an appropriate medium (DMEM or MEM) containing 10% heat-inactivated FBS with penicillin (100 U/mL) and streptomycin (100 U/mL). The cells were kept in a humidified incubator at 37 °C and 5% CO2 and passaged three times before experimenting.
(§3) The antiproliferative properties test for each cancer line was performed in 96-well plates, in which cells with a density of 2 × 10^4 were seeded in 100 µL of medium containing 10% FBS. After 24 h of allowing the cells to attach, the wells were washed with DPBS (Dulbecco’s phosphate-buffered saline) solution and the cells were incubated in fresh medium w/o FBS containing 1 µM, 10 µM, 50 µM, 200 µM or 500 µM of the tested compounds for 24 and 48 h. All substances were first dissolved in DMSO to prepare stock solutions that were then diluted in the medium to obtain a maximum of 0.1% w/v DMSO in the final solution. Each concentration was tested in triplicate. DMSO at a concentration of 0.1% in the medium was also used as a negative control. The antiproliferative activity of the compounds was tested using the MTT test. After each incubation time, the medium containing the test compounds and the negative control was removed, the cells were washed with DPBS solution, and then 100 µL of FBS-free and antibiotic-free fresh medium containing 0.5 mg/mL MTT was added to each well. The plates were incubated for 3 h in an incubator at 37 °C and 5% CO2. After incubation, the medium was removed, the cells were washed with 100 µL of PBS, and 100 µL of DMSO was added to each well to dissolve the purple formazan. The plate was shaken for 3 min and the absorbance was read at 570 nm (BioTek Synergy H1 microplate reader). Cell viability was calculated from the mean of the OD readings. Based on the dose–response curve, IC50 values were calculated (MS Excel). […] Therapeutic index (TI) results were calculated as the ratio of the IC50 of physiological cells to the IC50 of tumor cells.

[6] = system: 769-P (renal cell carcinoma); assay: MTT antiproliferative activity assay; assay type: cell-based, human; conditions: for decrease in viability: 769-P, 1 µM; for TI after 24h / TI after 48h: IC50 WS1 / IC50 769-P
Method: as §2, §3

Row | Structure (SMILES) | share of reference Gram-positive strains with no activity (Gram-positive bacteria; 8 strains) [%] | MBC/MIC [1] | MBC [1] [µg/mL] | MIC [1] [µg/mL] | MBC/MIC [2] | MBC [2] [µg/mL] | MIC [2] [µg/mL] | MFC/MIC [3] | MFC [3] [µg/mL] | MIC [3] [µg/mL] | MBC/MIC [4] | MBC [4] [µg/mL] | MIC [4] [µg/mL] | MBC [5] [µg/mL] | MIC [5] [µg/mL] | MBC/MIC [5] | TI after 24h (PC3 (prostate cancer); 24 h) | TI after 48h (PC3 (prostate cancer); 48 h) | decrease in viability ([6]; 24 h) | decrease in viability ([6]; 48 h) | also measured
1 | O=S(=O)(NNC(=S)NC1CCCCC1)c1ccccc1 [WZ1, 2-(Benzenesulfonyl)-N-Cyclohexylhydrazine-1-Carbothioamide] | 12.5 | > 1 | > 2000 | > 2000 | > 4 | > 2000 | 500 (≈ 1.6 mM) | > 1 | > 2000 | > 2000 | > 1 | > 2000 | > 2000 | > 2000 | 2000 (≈ 6.38 mM) | > 1 | 18.426 | 1.521 | ~ 11% | ~ 15% | MIC (Gram-positive bacteria; Enterococcus faecalis, Gram-positive bacteria except E. faecalis): 250 to 500 µg/mL (≈ 0.798 to 1.6 mM); MIC (Gram-positive bacteria; almost all Gram-positive bacteria): 62.5 to 500 µg/mL (≈ 0.199 to 1.6 mM); share of reference Gram-positive strains with moderate activity (Gram-positive bacteria; moderate activity: MIC 126–500 µg/mL, 8 strains): 87.5%; decrease in viability (PC3 (prostate cancer); PC3, 24 h, 50 µM): ~ 11%; concentration at which a statistically significant decrease in viability was observed (PC3 (prostate cancer); PC3, 48 h, tested 1–500 µM): 10 µM; TI after 24h ([6]; 24 h): 22.712; TI after 48h ([6]; 48 h): 7.757
2 | CCCCNC(=S)NNS(=O)(=O)c1ccccc1 [WZ2, 2-(Benzenesulfonyl)-N-Butylhydrazine-1-Carbothioamide] | 37.5 | > 1 | > 2000 | > 2000 | 2 | 2000 (≈ 6.96 mM) | 1000 (≈ 3.48 mM) | > 1 | > 2000 | 2000 (≈ 6.96 mM) | > 1 | > 2000 | > 2000 | > 2000 | > 2000 | > 1 | 289,230,463.397 | 224,184.286 | ~ 8% | ~ 10% | share of reference Gram-positive strains with mild activity (Gram-positive bacteria; mild activity: MIC 501–1000 µg/mL, 8 strains): 62.5%; MIC (Gram-positive bacteria; most Gram-positive bacteria): 1000 µg/mL (≈ 3.48 mM); bioactivity class ([5]; E. faecalis): no bioactivity (no bioactivity (MIC > 1000 µg/mL)); viability (reduced to) (PC3 (prostate cancer); PC3, 24 h, 200 µM): ~ 82%; viability (reduced to) (PC3 (prostate cancer); PC3, 48 h, 50 µM): ~ 88%; TI after 24h ([6]; 24 h): 753,464,970.626; TI after 48h ([6]; 48 h): 67,951.475

Source: article PMC10747733, “N-Substituted 2-(Benzenosulfonyl)-1-Carbotioamide Derivatives Exert Antimicrobial and Cytotoxic Effects via Aldehyde Dehydrogenase Pathway: Synthesis, In Silico and In Vitro Studies” (Pharmaceuticals, 2023)
